The subject of the experiment is BDF1 mice, B16 melanoma ip, median survival T/C. The experiment in a line: NCI In Vivo Anticancer Drug Screen. Data for tumor model B16 Melanoma (intraperitoneal) in B6D2F1 (BDF1) mice. As to conditions: endpoint: median survival time, higher = longer survival. As to the method: The antitumor activity of compounds was measured in mice bearing transplantable tumors. Survival or tumor size were measured and the results are expressed as the measurement made in the treated group (T) divided by the measurement made in the vehicle treated control group (C). The tumor model used in this assay is B16 Melanoma (intraperitoneal) in B6D2F1 (BDF1) mice

Setting [1] is: dose: 12.5 mg/kg/injection, schedule: Q01DX009 (ip), vehicle: Klucel (hydroxypropylcellulose) (HPC).
[2] abbreviates: dose: 25.0 mg/kg/injection, schedule: Q01DX009 (ip), vehicle: Klucel (hydroxypropylcellulose) (HPC).
[3] abbreviates: dose: 50.0 mg/kg/injection, schedule: Q01DX009 (ip), vehicle: Klucel (hydroxypropylcellulose) (HPC).
The mark [4] stands for this setting: dose: 100.0 mg/kg/injection, schedule: Q01DX009 (ip), vehicle: Klucel (hydroxypropylcellulose) (HPC).
Where [5] appears, read: dose: 6.25 mg/kg/injection, schedule: Q01DX009 (ip), vehicle: saline with Tween-80.
Setting [6] is: dose: 12.5 mg/kg/injection, schedule: Q01DX009 (ip), vehicle: saline with Tween-80.
[7] abbreviates: dose: 100.0 mg/kg/injection, schedule: Q01DX009 (ip), vehicle: saline with Tween-80.
Where [8] appears, read: dose: 200.0 mg/kg/injection, schedule: Q01DX009 (ip), vehicle: saline with Tween-80.
[9] abbreviates: dose: 10.0 mg/kg/injection, schedule: Q04DX003 (ip), vehicle: saline.
Where [10] appears, read: dose: 25.0 mg/kg/injection, schedule: Q01DX009 (ip), vehicle: saline with Tween-80.
The mark [11] stands for this setting: dose: 50.0 mg/kg/injection, schedule: Q01DX009 (ip), vehicle: saline with Tween-80.

Several values for one entry are separate records, joined by “and”; a condition that tells them apart may be missing. Equal entries are not always repeated. Toxic doses and inconclusive results are not listed.

18 compounds from PubChem BioAssay AID192 (DTP/NCI, 2004) can be followed below.

For the compound `Cc1ccc(S(=O)(=O)N(CCO)CC(C)O)cc1` (centres undefined), the T/C was 105 % of control (dose: 100.0 mg/kg/injection, schedule: Q04DX003 (ip), vehicle: Klucel (hydroxypropylcellulose) (HPC)); 94 % of control (dose: 200.0 mg/kg/injection, schedule: Q04DX003 (ip), vehicle: Klucel (hydroxypropylcellulose) (HPC)); 100 % of control (dose: 400.0 mg/kg/injection, schedule: Q04DX003 (ip), vehicle: Klucel (hydroxypropylcellulose) (HPC)).

On to `CCOC(=O)CNC(=O)Sc1ccc(C(C)(C)C)cc1`, for which the T/C by setting is: under setting [1], 97 % of control; under setting [2], 101 % of control; under setting [3], 104 % of control; under setting [4], 106 % of control; (dose: 200.0 mg/kg/injection, schedule: Q01DX009 (ip), vehicle: Klucel (hydroxypropylcellulose) (HPC)) 106 % of control; (dose: 400.0 mg/kg/injection, schedule: Q01DX009 (ip), vehicle: Klucel (hydroxypropylcellulose) (HPC)) 120 % of control.

In the case of `CS/C([S-])=N/[NH-].CS/C([S-])=N/[NH-].[Pd]`, the T/C is 98 % of control (dose: 3.13 mg/kg/injection, schedule: Q01DX009 (ip), vehicle: saline with Tween-80); 101 % of control under setting [5]; 99 % of control under setting [6].

`C=C(Cl)c1c(C)cc(C)cc1C`: the T/C under setting [3] was 87 % of control.

Regarding `O=[N+]([O-])c1cccc(S(=O)(=O)Nc2ccccc2Cl)c1`, the T/C is 90 % of control under setting [7]; 95 % of control under setting [8]; 95 % of control (dose: 400.0 mg/kg/injection, schedule: Q01DX009 (ip), vehicle: saline with Tween-80).

With `NC(=O)CC(N)C(=O)O` (centres undefined), the T/C reads like this: (dose: 50.0 mg/kg/injection, schedule: Q01DX009 (ip), vehicle: other) 99 % of control; (dose: 100.0 mg/kg/injection, schedule: Q01DX009 (ip), vehicle: other) 96 % of control; (dose: 100.0 mg/kg/injection, schedule: Q01DX009 (ip), vehicle: saline) 92 % of control; (dose: 200.0 mg/kg/injection, schedule: Q01DX009 (ip), vehicle: other) 105 % of control; (dose: 200.0 mg/kg/injection, schedule: Q01DX009 (ip), vehicle: saline) 87 % of control; (dose: 400.0 mg/kg/injection, schedule: Q01DX009 (ip), vehicle: other) 96 % of control. Also, the T/C runs as follows: (dose: 400.0 mg/kg/injection, schedule: Q01DX009 (ip), vehicle: saline) 87 % of control; (dose: 800.0 mg/kg/injection, schedule: Q01DX009 (ip), vehicle: other) 104 % of control; (dose: 1600.0 mg/kg/injection, schedule: Q01DX009 (ip), vehicle: other) 103 % of control.

With `CC1(C)N=C(N)N=C(N)N1c1cccc(Cl)c1`, the T/C reads like this: (dose: 5.0 mg/kg/injection, schedule: Q01DX009 (ip), vehicle: saline) 115 % of control; (dose: 10.0 mg/kg/injection, schedule: Q01DX009 (ip), vehicle: saline) 115 % of control; under setting [9], 118 % of control; (dose: 20.0 mg/kg/injection, schedule: Q01DX009 (ip), vehicle: saline) 120 % of control; (dose: 20.0 mg/kg/injection, schedule: Q04DX003 (ip), vehicle: saline) 117 % of control; (dose: 40.0 mg/kg/injection, schedule: Q01DX009 (ip), vehicle: saline) 120 % of control.

`O=C(CCCc1ccc(N(CCCl)CCCl)cc1)Nc1ncccn1`: the T/C by setting is: (dose: 3.0 mg/kg/injection, schedule: Q01DX009 (ip), vehicle: Klucel (hydroxypropylcellulose) (HPC)) 104 % of control; (dose: 6.0 mg/kg/injection, schedule: Q01DX009 (ip), vehicle: Klucel (hydroxypropylcellulose) (HPC)) 109 % of control; (dose: 12.0 mg/kg/injection, schedule: Q01DX009 (ip), vehicle: Klucel (hydroxypropylcellulose) (HPC)) 109 % of control.

For `O=C1CC(C(=O)N2Cc3cc4ccccc4nc3C2)CO1` (centres undefined), the T/C runs as follows: under setting [5], 111 % of control; under setting [6], 115 % of control; under setting [10], 113 % of control; under setting [11], 109 % of control; under setting [7], 116 % of control; under setting [8], 100 % of control.

Turning to `CCCCCc1cc(/C=C2/N=C(c3ccc[nH]3)C=C2OC)[nH]c1C`, the T/C was 98 % of control (dose: 0.25 mg/kg/injection, schedule: Q01DX009 (ip), vehicle: saline with Tween-80); 100 % of control (dose: 0.5 mg/kg/injection, schedule: Q01DX009 (ip), vehicle: saline with Tween-80); 102 % of control (dose: 1.0 mg/kg/injection, schedule: Q01DX009 (ip), vehicle: saline with Tween-80); 107 % of control (dose: 2.0 mg/kg/injection, schedule: Q01DX009 (ip), vehicle: saline with Tween-80); 110 % of control (dose: 4.0 mg/kg/injection, schedule: Q01DX009 (ip), vehicle: saline with Tween-80).

As to `Oc1cc2ccccc2c(-c2c(O)c(O)cc3ccccc23)c1O`, the T/C is, setting by setting: under setting [6], 114 % of control; under setting [10], 117 % of control; under setting [11], 117 % of control; under setting [7], 110 % of control.

As to `Brc1ccc2c(c1)-c1ccccc1C1=NCCN12`, the T/C was 118 % of control (dose: 2.5 mg/kg/injection, schedule: Q01DX009 (ip), vehicle: Klucel (hydroxypropylcellulose) (HPC)); 103 % of control (dose: 5.0 mg/kg/injection, schedule: Q01DX009 (ip), vehicle: Klucel (hydroxypropylcellulose) (HPC)); 100 % of control (dose: 5.0 mg/kg/injection, schedule: Q04DX003 (ip), vehicle: saline with Tween-80); 93 % of control (dose: 10.0 mg/kg/injection, schedule: Q01DX009 (ip), vehicle: Klucel (hydroxypropylcellulose) (HPC)); 102 % of control (dose: 10.0 mg/kg/injection, schedule: Q04DX003 (ip), vehicle: saline with Tween-80); 105 % of control under setting [9]. Besides, the T/C (dose: 20.0 mg/kg/injection, schedule: Q04DX003 (ip), vehicle: saline with Tween-80) is 100 % of control.

Consider `CCCCCCCCC1CCC(N)CC1` (centres undefined), for which the T/C runs as follows: under setting [3], 93 % of control; under setting [4], 86 % of control.

On to `O=c1[nH]c(=S)[nH]cc1Oc1ccc(I)cc1`, for which the T/C under setting [1] is 90 % of control, the T/C under setting [2] is 86 % of control and the T/C under setting [3] is 91 % of control.

For `O=C(O)c1ccc(Nc2c3ccccc3nc3ccccc23)cc1`, the T/C (dose: 8.0 mg/kg/injection, schedule: Q01DX009 (ip), vehicle: other) was 103 % of control; the T/C (dose: 12.0 mg/kg/injection, schedule: Q01DX009 (ip), vehicle: other) was 117 % of control; the T/C (dose: 13.0 mg/kg/injection, schedule: Q01DX009 (ip), vehicle: saline with Tween-80) was 119 % of control; the T/C (dose: 28.0 mg/kg/injection, schedule: Q01DX009 (ip), vehicle: other) is 117 % of control; the T/C (dose: 42.0 mg/kg/injection, schedule: Q01DX009 (ip), vehicle: other) was 160 % of control; the T/C (dose: 44.0 mg/kg/injection, schedule: Q01DX009 (ip), vehicle: Klucel (hydroxypropylcellulose) (HPC)) was 169 % of control. Further, the T/C (dose: 44.0 mg/kg/injection, schedule: Q01DX009 (ip), vehicle: saline with Tween-80) was 156 % of control.

Consider `Cc1ccc(C)c(C(O)C2CC2)c1` (centres undefined), for which the T/C runs as follows: under setting [11], 104 % of control; under setting [7], 100 % of control.

For the compound `CNCCOc1ccc(Cl)cc1`, the T/C runs as follows: under setting [10], 103 % of control; under setting [11], 98 % of control; under setting [7], 101 % of control.

Turning to `COc1cccc2c1C(=O)c1c(O)c3c(c(O)c1C2=O)C[C@@](O)(/C(CO)=N/NC(=O)c1ccc(Cl)c(Cl)c1)C[C@@H]3OC1CC(N)C(O)C(C)O1` (some centres undefined), the T/C (dose: 2.5 mg/kg/injection, schedule: Q01DX001 (ip), vehicle: other) was 119 % of control; the T/C (dose: 10.0 mg/kg/injection, schedule: Q01DX001 (ip), vehicle: water) is 111 % of control and 252 % of control; the T/C (dose: 20.0 mg/kg/injection, schedule: Q01DX001 (ip), vehicle: other) was 247 % of control; the T/C (dose: 20.0 mg/kg/injection, schedule: Q01DX001 (ip), vehicle: water) was 102 % of control; the T/C (dose: 40.0 mg/kg/injection, schedule: Q01DX001 (ip), vehicle: water) was 250 % of control; the T/C (dose: 80.0 mg/kg/injection, schedule: Q01DX001 (ip), vehicle: water) was 105 % of control.
